Tested on: Adnp-PTC718 expressing cells
Assay: Streptavidin purification and LC-MS/MS of FLAG/Avi-tagged Adnp-PTC718 from cells with and without aminoglycoside treatment (stop codon read-through, ChAHP complex formation)
Assay type: cell-based, mouse
Settings: Adnp-PTC718 expressing cells treated with 2 mg/ml gentamycin (2.9 mM) or paromomycin (3.2 mM) for 24 hours; LC-MS/MS of streptavidin-purified Adnp-PTC718
Experimental: FLAG/Avi-tagged Adnp-PTC718 was streptavidin purified from cells with and without aminoglycoside treatment and subjected to LC-MS/MS analysis. Adnp-PTC718 expressing cells were treated with 2 mg/ml gentamycin (2.9 mM) or paromomycin (3.2 mM) for 24 hours. The table depicts total spectral counts, unique peptides and percent sequence coverage for all ChAHP components from the different treatments.
Cells were grown to confluency on 10 cm dish, collected in PBS, and pelleted by 2 min centrifugation at 400 g. All subsequent steps were performed on ice or at 4 C. Pellets were resuspended in 3 ml of Nuclear extract buffer 1 (NEB1: 20 mM HEPES, 10 mM KCl, 1 mM EDTA, 0.1 mM Na3VO4, 0.2% NP-40, 10% glycerol, 1 mM DTT, 1×PIC) followed by centrifugation at 1000 g for 3 min. […] Protein concentration was determined using Bradford assay, and approximately 250 µg of nuclear extracts were used per affinity purification. […] The generated peptides were acidified with TFA to a final concentration of 0.8% and analyzed by capillary liquid chromatography tandem mass spectrometry with an EASY-nLC 1000 using the two-column set-up (Thermo Scientific). […] Protein identification and relative quantification of the proteins was done with MaxQuant version 1.5.3.8 using Andromeda as search engine^33 and label free quantification (LFQ.^34) as described in^35. […]

NC[C@@H]1O[C@H](O[C@H]2[C@@H](O)[C@H](O[C@@H]3[C@@H](O)[C@H](N)C[C@H](N)[C@H]3O[C@H]3O[C@H](CO)[C@@H](O)[C@H](O)[C@H]3N)O[C@@H]2CO)[C@H](N)[C@@H](O)[C@@H]1O [paromomycin]
formation of the ChAHP complex (stop codon read-through): restore the formation of the ChAHP complex

gentamycin
formation of the ChAHP complex (stop codon read-through): restore the formation of the ChAHP complex

Source: patent US20200261484A1, “INHIBITION OF AUTISM SPECTRUM DISORDER USING RIBOSOMAL READ-THROUGH COMPOUNDS” (Friedrich Miescher Inst. for Biomedical Research, priority 2017, published 2020)
